The text below walks through data of patent US9468209B2, “Method for eradicating weeds with derivatives of 3-acetyl-5-sec-butyl-4-hydroxy-3-pyrrolin-2-one” (priority 2012, dated 2016).

Holding throughout (type): in vivo
The test system of assay [1] is Redroot pigweed (Amaramthus retroflexus). Briefly: Leaf piece damage test. Set-up: key: 4: The leaf completely dead; 3: Two third of the leaf withered; 2: One half of the leaf withered; 1: Only edge of the leaf withered; 0: Not damage at all. Conditions: 50 μg/mL, 4 days. The gist of the method: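 Damage was rated on day 4 on five excised 5 mm leaf segments per treatment, which had been dosed thrice with a 50 μg/mL methanol-water solution. Solvent and water controls ran alongside. Ratings were summed as level × plant count, multiplied by 100, then divided by 4 and by plants per treatment.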

For assay [2], the system named is Crofton weed. Briefly: Spray on leaves and stems of three-leaf-stage Crofton weed seedlings grown in pots in a greenhouse. Set-up: key: 4: Plant completely dead; 3: Two thirds of the plant stems and leaves dried out; 2: Half of the plant stems and leaves dried out; 1: One third of the plant stems and leaves dried out; 0: No damage at all. Conditions: 50 μg/mL spray, assessed two days later. On the procedure: Compounds 1, 2, 3, and 40 were separately dissolved in a small amount of methanol. The solutions were then diluted with distilled water to a concentration of 50 μg/mL. A mixture of methanol and water in the same ratio as the sample solution was also prepared and used as control in the experiment. The solutions were sprayed on leaves and stems of three-leaf-stage Crofton weed seedlings. All the plants were grown in pot in a greenhouse. The leaves were properly wet by the solutions for consistency and the treatment was repeated 3 times. The measurement of the plant damage was calculated by the formula: Damage Index=Σ(damage level×number of plants)×100/4/number of plants in each treatment.

Assay [3] relates to Crofton weed. Briefly: Needle puncture test on Crofton weed with washes recovered from compound-treated soil. To be noted: after soil treatment (3 hours). On the procedure: Compounds 1, 2, 3, and 40 were dissolved in small amount of methanol and diluted with distilled water to concentration of 50 μg/mL. The solution was sprayed to the soil sample until the soil was wet but not overflows. After standing at room temperature for 3 hours, the soil sample was washed with water and methanol. The wash solution was collected and concentrated. Such process was repeated three times. The concentrated solutions were used for herbicidal activity test using the method of needle puncture on Crofton weed. Methanol water solution and pure water were used as control. The experiment for every sample was repeated six times. The spot diameters were measured with vernier caliper after the plant was kept under natural light at 25° C. for 24 hours (Table 11).

In assay [1], `CCCCC1NC(=O)C(C(C)=O)=C1O` (stereo not shown) [Compound 14] displayed a Damage level of 2.

Take `CCCCCC1NC(=O)C(C(C)=O)=C1O` (stereo not shown) [Compound 15]: in assay [1], the Damage level came out at 2.

The compound `CCCCCCC1NC(=O)C(C(C)=O)=C1O` (stereo not shown) [Compound 16] showed a Damage level in assay [1] of 3.

With `CCCC(Cl)C1NC(=O)C(C(C)=O)=C1O` (stereo not shown) [Compound 40], the entries for the “Damage level” value (with Crofton weed [2]; in assay [1]) were 4 and 3, respectively. In addition, the “Average diameter of the spot after 24 h, H2O wash” value in the assay on Crofton weed [3] (H2O wash) came to 0.336 ± 0.050 mm. In addition, the “Average diameter of the spot after 24 h, Methanol wash” value with Crofton weed [3] (Methanol wash) amounted to 0.416 ± 0.024 mm.

In assay [1], `CCC(C)C1NC(=O)C(C(=O)CCF)=C1O` (stereo not shown) [Compound 44] returned a Damage level of 2.

For the compound `CCC(C)C1NC(=O)C(C(=O)CCc2cc(Cl)cc(Cl)c2)=C1O` (stereo not shown) [Compound 48], the Damage level in assay [1] was found to be 2.

On to `CCCC(C#N)C1NC(=O)C(=C(C)O)C1=O` (stereo not shown) [Compound 53], for which, in assay [1], the Damage level is recorded as 3.
